From patent publication US8574893B2, “Nucleic acid cleavage complex and method for using the same” (National Cheng Kung University, priority 2010, dated 2013)

System: pST3 test vector
Assay: DNA cleavage test of the nucleic acid cleavage reagent in vitro
Type: biochemical
Protocol: First, the pST3 test vector of Test Example 1 is prepared. The abovementioned vector and the nucleic acid cleavage reagent (Cypate) are mixed in a molar ratio of 1:1000. […] Columns 5 and 6 of FIG. 5 show the position of the nucleic acid cleavage reagent (Cypate) in the gel.

CC1(C)C(/C=C/C=C/C=C/C=C2/N(CCC(=O)O)c3ccc4ccccc4c3C2(C)C)=[N+](CCC(=O)[O-])c2ccc3ccccc3c21 [Cypate, cypate]
cleavage of the plasmid to nicked open-circular plasmid (Form II plasmid) (vector:Cypate molar ratio 1:1000, irradiation for 5 mins, FIG. 5 column 8): partially cleaved | cleavage of the plasmid to nicked open-circular plasmid (Form II plasmid) (vector:Cypate molar ratio 1:1000, irradiation for 10 mins, FIG. 5 column 10): completely cleaved
